Laboratory results reported in EP4660196A1, “CRYSTAL FORM OF COMPOUND, PREPARATION METHOD THEREFOR AND USE THEREOF” (Felicamed Biotechnology Co., Ltd., priority 2023, dated 2024).

What was measured:
[1] = Urine and fecal excretion after single intragastric administration; conditions: dog, po, 6 mg/kg
Description: The preparations were freshly prepared on the day of administration, and sampled for determination of preparation concentration.
Six Beagle dogs (half male and half female) were fasted overnight in metabolic cages the day before the experiment. Before administration, urine and feces of each animal were collected as baseline (0 h) samples. On the day of administration, Beagle dogs received single intragastric administration of the drug at 6 mg/kg. Four hours after administration, the animals resumed feeding and had free access to water during the experiment.
After urine collection is completed, the volume was measured and recorded. Part of the collected urine was taken, methanol was added to dilute the urine in a urine-to-methanol volume ratio of 4: 1 (v/v). After vortex mixing, the mixture was divided into 2 portions. After fecal samples at different time periods were collected, the food residues on the surface were removed and the feces were weighed. […] After the last sampling of the urine and feces excretion experimental group was completed, the metabolic cages were rinsed with 2000 mL of water: ethanol (1: 1, v: v) and the rinse solution of each cage was collected. After the rinse solution was thoroughly shaken, 1 mL was immediately taken, placed into a 1.5 mL EP tube, and stored in a -90°C to 60°C refrigerator together with the urine and feces homogenate until sample analysis.
The drug concentration in the excretion samples of the animal in each group at different time periods was detected by LC-MS/MS, and an excretion rate and a cumulative excretion rate in each time period were calculated.

[2] = in vivo; design: species or system Sprague-Dawely rats; conditions: rat, po
Description: Sprague-Dawely rats (SPF grade) used in this experiment were purchased from Zhejiang Charles River Experimental Animal Technology Co., Ltd. with the production license No. SCXK (Zhe) 2019-0001 and the animal qualification certificate No. 20220107Aazz0619000738 and 20220107Aazz0619000691. A body weight range of males was 206.6 g to 234.5 g, and a body weight range of females was 188.4 g to 205.9 g.
In this experiment, all animals were randomly divided into 5 groups (5 animals/sex/group), received the drug at 97 mg/kg, 174 mg/kg, 312 mg/kg, 559 mg/kg, and 1000 mg/kg, respectively, and received signal intragastric administration orally. […] All animals received administration according to their latest weighed body weight. The drug was stirred for at least 10 min before administration, and continuously stirred during administration until the administration of the sample at this concentration was completed. […]
All animals underwent a comprehensive physical examination by a veterinarian before administration. […] All surviving animals were weighed once on the day of random grouping (Day-1), Day 1 (before administration), Day 3, Day 5, Day 7, and Day 8; and their 24±1-hour food consumption was measured once on Day 1 (Day 1 to Day 2), Day 2 (Day 2 to Day 3), and Day 6 (Day 6 to Day 7). […]

SMILES: CC[S@@](=N)(=O)C[C@H]1CC[C@H](N(C)c2ncnc3[nH]ccc23)CC1 [Free crystal form A]
- dose excreted at 120 h ([1]; cage rinse solution): 4.87 ± 3.09%
- dose excreted at 120 h ([1]; feces): 3.48 ± 0.663%
- dose excreted at 120 h ([1]; urine and feces): 47.3 ± 9.62%
- dose excreted at 120 h ([1]; urine, feces, cage rinse): 52.2%
- dose excreted at 120 h ([1]; urine): 43.8 ± 9.97%
- MTD at 168 h [2]: 174 mg/kg
